Experimental findings from BindingDB's records for doi:10.1124/jpet.102.046797 (University of Maryland, 2003) are described below.

The structures appear in SMILES notation.

For orientation: Ki means a measure of affinity in units of concentration, obtained from inhibition or displacement. A high value points to lower affinity.

In the experiment the target is T1, Gamma-hydroxybutyrate receptor (Rattus norvegicus, UniProt Q6RY99).
T1 sequence (Q6RY99 whole entry): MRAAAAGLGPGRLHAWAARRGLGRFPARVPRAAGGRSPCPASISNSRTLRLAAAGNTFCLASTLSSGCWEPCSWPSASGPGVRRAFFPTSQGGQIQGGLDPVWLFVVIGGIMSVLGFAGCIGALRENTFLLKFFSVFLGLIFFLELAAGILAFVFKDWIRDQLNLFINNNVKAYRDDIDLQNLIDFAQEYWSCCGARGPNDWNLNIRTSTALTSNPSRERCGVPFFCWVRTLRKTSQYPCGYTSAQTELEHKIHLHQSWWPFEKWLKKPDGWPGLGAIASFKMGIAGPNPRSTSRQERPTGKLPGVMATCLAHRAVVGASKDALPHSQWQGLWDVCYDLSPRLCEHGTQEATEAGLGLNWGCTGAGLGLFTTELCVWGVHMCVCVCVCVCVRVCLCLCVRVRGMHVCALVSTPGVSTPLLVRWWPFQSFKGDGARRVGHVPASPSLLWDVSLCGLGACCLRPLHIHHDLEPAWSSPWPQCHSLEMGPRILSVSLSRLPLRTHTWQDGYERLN
On to `O=C(O)/C=C1/CCCc2ccccc2C1O` (centres undefined) [CAS_131413], for which the affinity corresponds to a Ki of 1.8 µM.

Regarding `O=C(O)CCCCO` [UMB58], the Ki is more than 10 µM.

Regarding `CC(C)(O)CCC(=O)O` [UMB68], the Ki was more than 10 µM.

In turn, `CC(C)(O)CCCC(=O)O` [UMB75] showed a Ki of more than 10 µM.
